Reference: patent US20210300921A1, “EP4 INHIBITORS AND SYNTHESIS THEREOF” (Arrys Therapeutics, Inc., priority 2018, published 2021)

What was measured:
Assay type in all cases: in vivo, BALB/c mice
CT-26 tumors = test: Immune cell composition of CT-26 tumors by flow cytometry after 7 days of dosing; conditions: for percentage of dendritic cells (CD45, CD11c positive) in tumors: FIG. 7b; for regulatory T cells (CD45, CD4, FoxP3, CD25 positive) in tumors: versus vehicle, FIG. 7a; for percentage of activated T cells (CD45, CD3, CD8) by CD25 expression in tumors: FIG. 7c
Description: The immune cell composition of Compound X (the compound as described in Example 15, above) as a single agent and combined with a mouse anti-PD1 antibody was evaluated in the CT-26 mouse colon adenocarcinoma model grown in BALB/c mice. Mice were inoculated subcutaneously in the right flank with 5×10^5 tumor cells. When tumors reached an average size of 85 mm^3 dosing was initiated. The dosing regimens in the 4 separate cohorts comprising 10 mice each are listed as follows:
After dosing animals for 7 days, tumors were resected and used to prepare single cell suspensions. Live cells representing tumor and immune cells were stained with cocktails of antibodies targeting multiple immune cell markers (anti-CD45, anti-CD3, anti-CD4, anti-CD8, anti-CD25, anti-FoxP3, anti-PD-1, anti-CD11c) conjugated to different fluorescent tags. The stained cells were fixed in 4% paraformaldehyde and quantified using a multi-color flow cytometer (Fortessa). The data was analyzed with FloJo software.

[1] = tested on: 4T1 mouse breast cancer model; test: Antitumor activity in the 4T1 mouse breast cancer model, Compound X with or without anti-CTLA4; conditions: for tumor growth kinetics during the period of dosing: FIG. 3
Description: The antitumor activity of Compound X (the compound as described in Example 15, above) as a single agent and combined with a mouse anti-CTLA4 antibody was evaluated in the 4T1 mouse breast cancer model grown in BALB/c mice. Mice were inoculated subcutaneously in the right flank with 3×10^5 tumor cells. When tumors reached an average size of 100 mm^3 (7 days after tumor cell inoculation) dosing was initiated.

[2] = tested on: 4T1 mouse breast cancer model; test: Antitumor activity in the 4T1 mouse breast cancer model, additional experiment with anti-PD1 (7 mice per cohort); conditions: FIG. 6
Description: The antitumor activity of Compound X as a single agent and combined with a mouse anti-PD1 antibody was evaluated in the 4T1 mouse breast cancer model grown in BALB/c mice in an additional experiment. Mice were inoculated subcutaneously in the right flank with 3×10^5 tumor cells. When tumors reached an average size of 97 mm^3 dosing was initiated. The dosing regimens in the 4 separate cohorts comprising 7 mice each are as follows: […]

[3] = tested on: CT-26 mouse colon adenocarcinoma model; test: Antitumor activity in the CT-26 mouse colon adenocarcinoma model, additional experiment (7 mice per cohort); conditions: FIG. 5
Description: The antitumor activity of Compound X as a single agent and combined with a mouse anti-PD1 antibody was evaluated in the CT-26 mouse colon adenocarcinoma model grown in BALB/c mice in an additional experiment. Mice were inoculated subcutaneously in the right flank with 5×10^5 tumor cells. When tumors reached an average size of 91 mm^3 dosing was initiated. The dosing regimens in the 4 separate cohorts comprising 7 mice each are as follows: […]

[4] = tested on: CT-26 mouse colon adenocarcinoma model; test: Antitumor activity in the CT-26 mouse colon adenocarcinoma model, Compound X with or without anti-PD-1 (10 mice per cohort); conditions: for tumor growth kinetics during the treatment period: versus single agent anti-PD-1; for tumor growth kinetics during the period of dosing: versus vehicle
Description: The antitumor activity of Compound X as a single agent and combined with a mouse anti-PD-1 antibody was evaluated in the CT-26 mouse colon adenocarcinoma model grown in BALB/c mice. Mice were inoculated subcutaneously in the right flank with 5×10^5 tumor cells. When tumors reached an average size of 71 mm^3 (6 days after tumor cell inoculation) dosing was initiated. The dosing regimens in the 8 separate cohorts comprising 10 mice each are as follows: […]

[5] = single agent: Compound X 15 mg/kg BID x7 days po or anti-PD-1 10 mg/kg Q3D x3 ip
[6] = Compound X 15 mg/kg BID in combination with anti-CTLA4

C[C@H](NC(=O)c1cc(Cl)cnc1Oc1cccc(F)c1)c1ccc(C(=O)O)cc1 [Compound X]
percentage of dendritic cells (CD45, CD11c positive) in tumors (CT-26 tumors; Compound X 15 mg/kg BID dosed with anti-PD-1 10 mg/kg Q3D): increased percentage
regulatory T cells (CD45, CD4, FoxP3, CD25 positive) in tumors (CT-26 tumors; combination of Compound X 15 mg/kg BID and anti-PD-1 10 mg/kg Q3D): significant decrease
percentage of activated T cells (CD45, CD3, CD8) by CD25 expression in tumors (CT-26 tumors; combination of Compound X 15 mg/kg BID with anti-PD-1 10 mg/kg Q3D): increased percentage
percentage of activated T cells (CD45, CD3, CD8) by CD25 expression in tumors (CT-26 tumors; either agent dosed alone): did not
percentage of dendritic cells (CD45, CD11c positive) in tumors (CT-26 tumors; [5]): increased percentage
regulatory T cells (CD45, CD4, FoxP3, CD25 positive) in tumors (CT-26 tumors; [5]): significant decrease
mice still alive 47 days after tumor inoculation [1, 6]: 7 of 10
mice still alive at the end of the study 55 days after tumor inoculation [1, 6]: 3 of 10
survival rate after treatment was discontinued ([1]; Compound X 15 mg/kg BID in combination with anti-CTLA4, FIG. 4): improved survival rate relative to either single agent alone
tumor growth kinetics during the period of dosing ([1]; Compound X and anti-CTLA4 combined, versus either agent alone): decreased relative to either agent when dosed alone
mice alive 47 days after tumor inoculation ([1]; single agent alone): none
tumor growth kinetics during the period of dosing ([1]; single agent: Compound X 15 mg/kg BID or anti-CTLA4, versus vehicle): decreased relative to the vehicle treated mice
tumor growth kinetics during the period of dosing ([2]; Compound X 15 mg/kg BID combined with anti-PD1 10 mg/kg BIW ip): lower than mice treated with either single agent
tumor growth kinetics during the period of dosing ([2]; Compound X 15 mg/kg BID po, single agent): less than that of the vehicle group and anti-PD1 when dosed alone
tumor growth kinetics during the period of dosing ([3]; Compound X 15 mg/kg BID combined with anti-PD1 10 mg/kg BIW ip, versus single agents): lower than mice treated with either single agent
tumor growth kinetics during the period of dosing ([3]; single agent: Compound X 15 mg/kg BID po or anti-PD1 10 mg/kg BIW ip, versus vehicle): less than that of the vehicle group
mice still alive 99 days after tumor inoculation ([4]; Compound X 15 mg/kg BID in combination with anti-PD-1): 5 out of 10
growth kinetics after treatment was discontinued ([4]; Compound X 15 mg/kg BID in combination with anti-PD-1, FIG. 1): decreased growth kinetics relative to anti-PD-1
survival after treatment was discontinued ([4]; Compound X 15 mg/kg BID in combination with anti-PD-1, FIG. 2): improved survival
tumor free mice 99 days after tumor inoculation ([4]; Compound X 15 mg/kg BID in combination with anti-PD-1, of 10 mice): 4
tumor growth kinetics during the treatment period ([4]; Compound X 15 mg/kg BID p.o. combined with anti-PD-1 10 mg/kg i.p.): not notably different mice treated with single agent anti-PD-1
tumor growth kinetics during the period of dosing ([4]; Compound X 15 mg/kg BID p.o., single agent, FIG. 1): not notably different from the vehicle treated mice
tumor growth kinetics during the treatment period ([4]; Compound X 15 mg/kg QD p.o. combined with anti-PD-1 10 mg/kg i.p.): not notably different mice treated with single agent anti-PD-1
tumor growth kinetics during the period of dosing ([4]; Compound X 15 mg/kg QD p.o., single agent, FIG. 1): not notably different from the vehicle treated mice
mice still alive and tumor free 99 days after tumor inoculation ([4]; single agent): 1 out of 10
